Test system: recombinant NL4-3 virus (Renilla luciferase in nef, Gag P373S)
Experiment: HIV cell culture assay (luciferase reporter, MT-2 cells)
Assay type: cell-based, HIV-1
Details: Renilla, NL43, MT-2 cells infected for 4-5 days with NLRluc recombinants; luciferase activity; serial dilutions of inhibitor
How it was run: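 MT-2 cells infected with recombinant NL4-3 carrying Renilla luciferase in place of part of nef and Gag P373S, virus made by 293T transfection. Infection ran 4-5 days with serial inhibitor dilutions. Antiviral activity read as luciferase activity (Dual Luciferase reagents mixed with lysis buffer).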

Row | Structure (SMILES) | EC50 [nM]
1 | COC(=O)N[C@@H]1CC[C@]2(NCCN3CCS(=O)(=O)CC3)CC[C@]3(C)[C@H](CC[C@@H]4[C@@]5(C)CC=C(c6ccc(C(=O)O)cc6)C(C)(C)[C@@H]5CC[C@]43C)[C@@H]12 [Example B26, 4-((1R,3aR,5aR,5bR,7aR,11aS,11bR,13aR,13bS)-3a-((2-(1,1-dioxidothiomorpholino)ethyl)amino)-1-((methoxycarbonyl)amino)-5a,5b,8,8,11a-pentamethyl-2,3,3a,4,5,5a,5b,6,7,7a,8,11,11a,11b,12,13,13a,13b-octadecahydro-1H-cyclopenta[a]chrysen-9-yl)benzoic acid] | 2.85
2 | CC1(C)C(c2ccc(C(=O)O)cc2)=CC[C@]2(C)[C@H]3CC[C@@H]4[C@H]5[C@H](C(=O)N6CCOCC6)CC[C@]5(NCCN5CCS(=O)(=O)CC5)CC[C@@]4(C)[C@]3(C)CC[C@@H]12 [Example B27, 4-((1R,3aS,5aR,5bR,7aR,11aS,11bR,13aR,13bS)-3a-((2-(1,1-dioxidothiomorpholino)ethyl)amino)-5a,5b,8,8,11a-pentamethyl-1-(morpholine-4-carbonyl)-2,3,3a,4,5,5a,5b,6,7,7a,8,11,11a,11b,12,13,13a,13b-octadecahydro-1H-cyclopenta[a]chrysen-9-yl)benzoic acid] | 8.11
3 | CNC(=O)[C@@H]1CC[C@]2(NCCN3CCS(=O)(=O)CC3)CC[C@]3(C)[C@H](CC[C@@H]4[C@@]5(C)CC=C(c6ccc(C(=O)O)cc6)C(C)(C)[C@@H]5CC[C@]43C)[C@@H]12 [Example B28, 4-((1R,3aS,5aR,5bR,7aR,11aS,11bR,13aR,13bS)-3a-((2-(1,1-dioxidothiomorpholino)ethyl)amino)-5a,5b,8,8,11a-pentamethyl-1-(methylcarbamoyl)-2,3,3a,4,5,5a,5b,6,7,7a,8,11,11a,11b,12,13,13a,13b-octadecahydro-1H-cyclopenta[a]chrysen-9-yl)benzoic acid] | 110
4 | CNC(=O)N[C@@H]1CC[C@]2(NCCN3CCS(=O)(=O)CC3)CC[C@]3(C)[C@H](CC[C@@H]4[C@@]5(C)CC=C(c6ccc(C(=O)O)cc6)C(C)(C)[C@@H]5CC[C@]43C)[C@@H]12 [Example B29, 4-((1R,3aR,5aR,5bR,7aR,11aS,11bR,13aR,13bS)-3a-((2-(1,1-dioxidothiomorpholino)ethyl)amino)-5a,5b,8,8,11a-pentamethyl-1-(3-methylureido)-2,3,3a,4,5,5a,5b,6,7,7a,8,11,11a,11b,12,13,13a,13b-octadecahydro-1H-cyclopenta[a]chrysen-9-yl)benzoic acid] | 30
5 | CC1(C)C(c2ccc(C(=O)O)cc2)=CC[C@]2(C)[C@H]3CC[C@@H]4[C@H]5[C@H](NC(=O)N6CCCC6)CC[C@]5(NCCN5CCS(=O)(=O)CC5)CC[C@@]4(C)[C@]3(C)CC[C@@H]12 [Example B30, 4-((1R,3aR,5aR,5bR,7aR,11aS,11bR,13aR,13bS)-3a-((2-(1,1-dioxidothiomorpholino)ethyl)amino)-5a,5b,8,8,11a-pentamethyl-1-(pyrrolidine-1-carboxamido)-2,3,3a,4,5,5a,5b,6,7,7a,8,11,11a,11b,12,13,13a,13b-octadecahydro-1H-cyclopenta[a]chrysen-9-yl)benzoic acid] | 2.96
6 | CC1(C)C(c2ccc(C(=O)O)cc2)=CC[C@]2(C)[C@H]3CC[C@@H]4[C@H]5[C@H](c6nnco6)CC[C@]5(NCCN5CCS(=O)(=O)CC5)CC[C@@]4(C)[C@]3(C)CC[C@@H]12 [Example B31, 4-((1R,3aS,5aR,5bR,7aR,11aS,11bR,13aR,13bS)-3a-((2-(1,1-dioxidothiomorpholino)ethyl)amino)-5a,5b,8,8,11a-pentamethyl-1-(1,3,4-oxadiazol-2-yl)-2,3,3a,4,5,5a,5b,6,7,7a,8,11,11a,11b,12,13,13a,13b-octadecahydro-1H-cyclopenta[a]chrysen-9-yl)benzoic acid] | 30
7 | CC([C@@H]1CC[C@]2(NCCN3CCS(=O)(=O)CC3)CC[C@]3(C)[C@H](CC[C@@H]4[C@@]5(C)CC=C(c6ccc(C(=O)O)cc6)C(C)(C)[C@@H]5CC[C@]43C)[C@@H]12)N1CCCC1=O (stereo partly drawn) [Example B32, 4-((1R,3aS,5aR,5bR,7aR,11aS,11bR,13aR,13bS)-3a-((2-(1,1-dioxidothiomorpholino)ethyl)amino)-5a,5b,8,8,11a-pentamethyl-1-(1-(2-oxopyrrolidin-1-yl)ethyl)-2,3,3a,4,5,5a,5b,6,7,7a,8,11,11a,11b,12,13,13a,13b-octadecahydro-1H-cyclopenta[a]chrysen-9-yl)benzoic acid] | 2.84
8 | CC1(C)C(c2ccc(C(=O)O)cc2)=CC[C@]2(C)[C@H]3CC[C@@H]4[C@H]5[C@H](N)CC[C@]5(NCCN5CCS(=O)(=O)CC5)CC[C@@]4(C)[C@]3(C)CC[C@@H]12 [Example B33, 4-((1R,3aR,5aR,5bR,7aR,11aS,11bR,13aR,13bS)-1-amino-3a-((2-(1,1-dioxidothiomorpholino)ethyl)amino)-5a,5b,8,8,11a-pentamethyl-2,3,3a,4,5,5a,5b,6,7,7a,8,11,11a,11b,12,13,13a,13b-octadecahydro-1H-cyclopenta[a]chrysen-9-yl)benzoic acid] | 130
9 | COCCS(=O)(=O)CCN(C)CCN[C@]12CC[C@@H](N(C)C)[C@@H]1[C@H]1CC[C@@H]3[C@@]4(C)CC=C(c5ccc(C(=O)O)cc5)C(C)(C)[C@@H]4CC[C@@]3(C)[C@]1(C)CC2 [Example B34] | 20
10 | CNC(C)[C@@H]1CC[C@]2(NCCN3CCS(=O)(=O)CC3)CC[C@]3(C)[C@H](CC[C@@H]4[C@@]5(C)CC=C(c6ccc(C(=O)O)cc6)C(C)(C)[C@@H]5CC[C@]43C)[C@@H]12 (stereo partly drawn) [Example B35, 4-((1R,3aS,5aR,5bR,7aR,11aS,11bR,13aR,13bS)-3a-((2-(1,1-dioxidothiomorpholino)ethyl)amino)-5a,5b,8,8,11a-pentamethyl-1-(1-(methylamino)ethyl)-2,3,3a,4,5,5a,5b,6,7,7a,8,11,11a,11b,12,13,13a,13b-octadecahydro-1H-cyclopenta[a]chrysen-9-yl)benzoic acid] | 4.24
11 | CC(=O)N[C@@H]1CC[C@]2(NCCN3CCS(=O)(=O)CC3)CC[C@]3(C)[C@H](CC[C@@H]4[C@@]5(C)CC=C(c6ccc(C(=O)O)cc6)C(C)(C)[C@@H]5CC[C@]43C)[C@@H]12 [Example B36, 4-((1R,3aR,5aR,5bR,7aR,11aS,11bR,13aR,13bS)-1-acetamido-3a-((2-(1,1-dioxidothiomorpholino)ethyl)amino)-5a,5b,8,8,11a-pentamethyl-2,3,3a,4,5,5a,5b,6,7,7a,8,11,11a,11b,12,13,13a,13b-octadecahydro-1H-cyclopenta[a]chrysen-9-yl)benzoic acid] | 6.29
12 | CN[C@@H]1CC[C@]2(NCCN3CCS(=O)(=O)CC3)CC[C@]3(C)[C@H](CC[C@@H]4[C@@]5(C)CC=C(c6ccc(C(=O)O)cc6)C(C)(C)[C@@H]5CC[C@]43C)[C@@H]12 [Example B37, 4-((1R,3aR,5aR,5bR,7aR,11aS,11bR,13aR,13bS)-3a-((2-(1,1-dioxidothiomorpholino)ethyl)amino)-5a,5b,8,8,11a-pentamethyl-1-(methylamino)-2,3,3a,4,5,5a,5b,6,7,7a,8,11,11a,11b,12,13,13a,13b-octadecahydro-1H-cyclopenta[a]chrysen-9-yl)benzoic acid] | 40
13 | CN(C)[C@@H]1CC[C@]2(NCCN3CCS(=O)(=O)CC3)CC[C@]3(C)[C@H](CC[C@@H]4[C@@]5(C)CC=C(c6ccc(C(=O)O)cc6)C(C)(C)[C@@H]5CC[C@]43C)[C@@H]12 [Example B38, 4-((1R,3aR,5aR,5bR,7aR,11aS,11bR,13aR,13bS)-1-(dimethylamino)-3a-((2-(1,1-dioxidothiomorpholino)ethyl)amino)-5a,5b,8,8,11a-pentamethyl-2,3,3a,4,5,5a,5b,6,7,7a,8,11,11a,11b,12,13,13a,13b-octadecahydro-1H-cyclopenta[a]chrysen-9-yl)benzoic acid] | 10
14 | CC1(C)C(c2ccc(C(=O)O)cc2)=CC[C@]2(C)[C@H]3CC[C@@H]4[C@H]5[C@H](CO)CC[C@]5(NCCN5CCS(=O)(=O)CC5)CC[C@@]4(C)[C@]3(C)CC[C@@H]12 [Example B42, 4-((1R,3aS,5aR,5bR,7aR,11aS,11bR,13aR,13bS)-3a-((2-(1,1-dioxidothiomorpholino)ethyl)amino)-1-(hydroxymethyl)-5a,5b,8,8,11a-pentamethyl-2,3,3a,4,5,5a,5b,6,7,7a,8,11,11a,11b,12,13,13a,13b-octadecahydro-1H-cyclopenta[a]chrysen-9-yl)benzoic acid] | 40
15 | CC1(C)C(c2ccc(C(=O)O)cc2)=CC[C@]2(C)[C@H]3CC[C@@H]4[C@H]5[C@H](NC(=O)C(F)(F)F)CC[C@]5(NCCN5CCS(=O)(=O)CC5)CC[C@@]4(C)[C@]3(C)CC[C@@H]12 [Example B43, 4-((1R,3aR,5aR,5bR,7aR,11aS,11bR,13aR,13bS)-3a-((2-(1,1-dioxidothiomorpholino)ethyl)amino)-5a,5b,8,8,11a-pentamethyl-1-(2,2,2-trifluoroacetamido)-2,3,3a,4,5,5a,5b,6,7,7a,8,11,11a,11b,12,13,13a,13b-octadecahydro-1H-cyclopenta[a]chrysen-9-yl)benzoic acid] | 2.12
16 | CN(C(=O)C(F)(F)F)[C@@H]1CC[C@]2(NCCN3CCS(=O)(=O)CC3)CC[C@]3(C)[C@H](CC[C@@H]4[C@@]5(C)CC=C(c6ccc(C(=O)O)cc6)C(C)(C)[C@@H]5CC[C@]43C)[C@@H]12 [Example B44, 4-((1R,3aR,5aR,5bR,7aR,11aS,11bR,13aR,13bS)-3a-((2-(1,1-dioxidothiomorpholino)ethyl)amino)-5a,5b,8,8,11a-pentamethyl-1-(2,2,2-trifluoro-N-methylacetamido)-2,3,3a,4,5,5a,5b,6,7,7a,8,11,11a,11b,12,13,13a,13b-octadecahydro-1H-cyclopenta[a]chrysen-9-yl)benzoic acid] | 5.92
